According to patent US20100331348A1, “TROPANE DERIVATIVES USEFUL AS PESTICIDES” (SYNGENTA CROP PROTECTION, INC., priority 2007, published 2010):
Where two headings read alike, the source gives them in different places.

Columns and labels:
Phytophthora infestans = assay: whole plant or invertebrate; format: in vivo; details: foliar, 96 h, read-out: control of fungal infection, Phytophthora infestans
Plasmopara viticola = Plasmopara viticola (downy mildew of grapevine) leaf disk assay; format: in vivo; details: foliar, 168 h, preventive, seven days after inoculation, read-out: control of fungal infection, Plasmopara viticola
[1] = tested on: Erysiphe graminis f.sp. tritici; assay: Erysiphe graminis f.sp. tritici (wheat powdery mildew) leaf disk assay; format: in vivo; details: Blumeria graminis, foliar, 96 h, preventive, four days after inoculation, read-out: control of fungal infection, Erysiphe graminis fsp. tritici
[2] = tested on: Puccinia recondita f.sp. tritici; assay: Puccinia recondita f.sp. tritici (wheat brown rust) leaf disk assay; format: in vivo; details: foliar, 216 h, preventive, nine days after inoculation, read-out: control of fungal infection, Puccinia recondita f.sp. tritici
Aedes aegypti = Aedes aegypti (Yellow fever mosquito) larvae test; format: in vivo; details: 48 h
Pyricularia oryzae = assay: whole plant or invertebrate; format: in vivo; details: foliar, 96 h
Plutella xylostella = Plutella xylostella (Diamond back moth) artificial diet test; details: 120 h, read-out: control of Plutella xylostella
[3] = read-out: control of fungal infection, Pyricularia oryzae (at least 60% list)
[4] = read-out: control of fungal infection, Pyricularia oryzae (at least 80% list)

Row | Structure (SMILES) | melting point [°C] | pest or weed control at 200 ppm [1] [%] | pest or weed control at 200 ppm [2] [%] | also measured
1 | COc1cc(C(C)=O)ccc1OC1C[C@H]2CC[C@@H](C1)N2c1ncnc2sccc12 (stereo partly drawn) | 171 |  |  | 
2 | CCc1ncnc(N2[C@@H]3CC[C@H]2CC(O)C3)c1Cl (stereo partly drawn) | 104 |  |  | 
3 | Cc1nn(C)c2nccc(N3[C@@H]4CC[C@H]3CC(Oc3ccc(Cl)cc3)C4)c12 (stereo partly drawn) | 155 |  |  | 
4 | CCc1ncnc(N2[C@@H]3CC[C@H]2CC(ON)C3)c1Cl (stereo partly drawn) | 70 |  |  | 
5 | Cc1noc2ncnc(N3[C@@H]4CC[C@H]3CC(Oc3cc(C(F)(F)F)ccn3)C4)c12 (stereo partly drawn) | 192 |  |  | 
6 | Cc1noc2ncnc(N3[C@@H]4CC[C@H]3CC(Oc3ccc(C(F)(F)F)cn3)C4)c12 (stereo partly drawn) | 238 |  |  | 
7 | N#Cc1c(Cl)nsc1N1[C@@H]2CC[C@H]1CC(Oc1cccc(C(F)(F)F)n1)C2 (stereo partly drawn) | 158 |  |  | 
8 | N#Cc1sc(N2[C@@H]3CC[C@H]2CC(Oc2cccc(C(F)(F)F)n2)C3)nc1C(F)(F)F (stereo partly drawn) | 147 |  |  | 
9 | FC(F)(F)c1ccc(OC2C[C@H]3CC[C@@H](C2)N3c2ccnc3cc(Cl)ccc23)nc1 (stereo partly drawn) | 107 |  |  | 
10 | N#Cc1sc(N2[C@@H]3CC[C@H]2CC(Oc2cc(C(F)(F)F)ccn2)C3)nc1C(F)(F)F (stereo partly drawn) | 129 |  |  | 
11 | N#Cc1c(Cl)nsc1N1[C@@H]2CC[C@H]1CC(Oc1ccc(C(F)(F)F)cn1)C2 (stereo partly drawn) | 157 |  |  | 
12 | N#Cc1sc(N2[C@@H]3CC[C@H]2CC(Oc2ccc(C(F)(F)F)cn2)C3)nc1C(F)(F)F (stereo partly drawn) | 135 |  |  | 
13 | Cn1cc(C(=O)N2[C@@H]3CC[C@H]2CC(Oc2cc(C(F)(F)F)ccn2)C3)c(C(F)(F)F)c1 (stereo partly drawn) | 183 |  |  | 
14 | Clc1ccc(OC2C[C@H]3CC[C@@H](C2)N3c2ncnc3sccc23)cc1 (stereo partly drawn) | 184 |  |  | 
15 | FC(F)(F)c1ccnc(OC2C[C@H]3CC[C@@H](C2)N3c2ncnc3ccsc23)c1 (stereo partly drawn) | 211 |  |  | 
16 | Cc1csc2c(N3[C@@H]4CC[C@H]3CC(Oc3cc(C(F)(F)F)ccn3)C4)ncnc12 (stereo partly drawn) | 76 |  |  | 
17 | CCc1ncnc(N2C3CCC2CC(=CC(=O)O)C3)c1Cl | 162 |  |  | 
18 | CC(=O)NC1C[C@H]2CC[C@@H](C1)N2c1ncnc2sccc12 (stereo partly drawn) | 196 |  |  | 
19 | O=C(NC1C[C@H]2CC[C@@H](C1)N2c1ncnc2sccc12)c1cccnc1 (stereo partly drawn) | 170 |  |  | 
20 | CCc1ncnc(N2C3CCC2CC(=NO)C3)c1Cl | 73 |  |  | 
21 | Cc1nn(C)c2nccc(N3C4CCC3CC(=NO)C4)c12 | 201 |  |  | 
22 | CCc1ncnc(N2C3CCC2CC(CC(N)=O)C3)c1Cl (stereo not drawn) | 101 |  |  | 
23 | CCc1ncnc(N2C3CCC2CC(CC(N)=S)C3)c1Cl (stereo not drawn) | 160 |  |  | 
24 | CCc1ncnc(N2C3CCC2CC(CC(=O)O)C3)c1Cl (stereo not drawn) | 109 |  |  | 
25 | O=C(O)CC1CC2CCC(C1)N2c1ncnc2sccc12 (stereo not drawn) | 181 |  |  | 
26 | O=C1c2ccccc2C(=O)N1OC1C[C@H]2CC[C@@H](C1)N2c1ncnc2sccc12 (stereo partly drawn) [1.73] | 243 |  |  | 
27 | Cn1cc(C(=O)N2[C@@H]3CC[C@H]2CC(Oc2ccc(C(F)(F)F)cn2)C3)c(C(F)(F)F)c1 (stereo partly drawn) [2.218] | 147 |  |  | 
28 | Cn1cc(C(=O)N2[C@@H]3CC[C@H]2CC(Oc2ccc(C(F)(F)F)cn2)C3)c(C(F)(F)F)c1 (stereo partly drawn) [2.223] | 153 |  |  | 

Row | Structure (SMILES) | melting point [°C] | pest or weed control at 200 ppm [1] [%] | pest or weed control at 200 ppm [2] [%] | also measured
29 | Cc1nc(OC2C[C@H]3CC[C@@H](C2)N3c2ncnc3sccc23)cc(N(C)C)n1 (stereo partly drawn) [Example 1.53] |  |  |  | pest or weed control at 200 ppm (Phytophthora infestans): ≥ 80%; pest or weed control at 200 ppm (Plasmopara viticola): ≥ 80%
30 | CS(=O)(=O)OC1C[C@H]2CC[C@@H](C1)N2c1ncnc2sccc12 (stereo partly drawn) [Example 2.10] | 135 | ≥ 80 |  | 
31 | FC(F)(F)c1cccc(OC2C[C@H]3CC[C@@H](C2)N3c2cc(Cl)ncn2)n1 (stereo partly drawn) [Example 2.90] | 136 | ≥ 80 |  | 
32 | Cc1nn(C)c2nccc(N3[C@@H]4CC[C@H]3CC(Oc3nc(C(F)(F)F)cs3)C4)c12 (stereo partly drawn) [Example 2.107] | 184 | ≥ 80 |  | 
33 | Cc1noc2ncnc(N3[C@@H]4CC[C@H]3CC(Oc3cccc(C(F)(F)F)n3)C4)c12 (stereo partly drawn) [Example 2.121] | 159 | ≥ 80 | ≥ 80 | 
34 | N#Cc1c(Cl)nsc1N1[C@@H]2CC[C@H]1CC(Oc1cc(C(F)(F)F)ccn1)C2 (stereo partly drawn) [Example 2.196] | 103 | ≥ 80 |  | 
35 | Cc1nsc(N2[C@@H]3CC[C@H]2CC(Oc2ccc(C(F)(F)F)cn2)C3)c1Cl (stereo partly drawn) [Example 2.199] | 46 | ≥ 80 |  | 
36 | Cc1nsc(N2[C@@H]3CC[C@H]2CC(Oc2ccc(C(F)(F)F)cn2)C3)n1 (stereo partly drawn) [Example 2.204] | 169 |  | ≥ 80 | 
37 | Cn1nc(C(F)(F)F)cc1C(=O)N1[C@@H]2CC[C@H]1CC(Oc1cc(C(F)(F)F)ccn1)C2 (stereo partly drawn) [Example 2.217] | 122 | ≥ 80 |  | 
38 | CCc1ncnc(N2C3CCC2CC(=CC#N)C3)c1Cl [Example 3.1] | 73 |  | ≥ 80 | 
39 | Fc1cccc(OCC=C2CC3CCC(C2)N3c2ncnc3sccc23)c1 [Example 3.38] |  |  | ≥ 80 | pest or weed control at 2 ppm (Aedes aegypti): ≥ 80%; pest or weed control at 200 ppm (Pyricularia oryzae; [3]): ≥ 60%; pest or weed control at 200 ppm (Pyricularia oryzae; [4]): ≥ 80%; pest or weed control at 200 ppm (Plutella xylostella): ≥ 80%; pest or weed control at 200 ppm (Plasmopara viticola): ≥ 80%
40 | CCc1ncnc(C(C)c2ncnc(N3C4CCC3CC(=NO)C4)c2Cl)c1Cl (stereo not drawn) [Example 5.4] | 162 | ≥ 80 |  | 
41 | CCc1ccc(CON=C2CC3CCC(C2)N3c2ncnc(CC)c2Cl)cc1 [Example 5.17] |  | ≥ 80 | ≥ 80 | pest or weed control at 2 ppm (Aedes aegypti): ≥ 80%; pest or weed control at 200 ppm (Plutella xylostella): ≥ 80%; pest or weed control at 200 ppm (Phytophthora infestans): ≥ 80%; pest or weed control at 200 ppm (Plasmopara viticola): ≥ 80%
42 | CCc1ncnc(N2C3CCC2CC(=NOCc2ccc(Br)cc2)C3)c1Cl [Example 5.19] |  | ≥ 80 | ≥ 80 | pest or weed control at 200 ppm (Plutella xylostella): ≥ 80%; pest or weed control at 200 ppm (Phytophthora infestans): ≥ 80%; pest or weed control at 200 ppm (Plasmopara viticola): ≥ 80%
43 | Clc1ccccc1CON=C1CC2CCC(C1)N2c1ncnc2sccc12 [Example 5.141] |  | ≥ 80 | ≥ 80 | pest or weed control at 2 ppm (Aedes aegypti): ≥ 80%; pest or weed control at 200 ppm (Pyricularia oryzae; [3]): ≥ 60%; pest or weed control at 200 ppm (Plutella xylostella): ≥ 80%; pest or weed control at 200 ppm (Phytophthora infestans): ≥ 80%; pest or weed control at 200 ppm (Plasmopara viticola): ≥ 80%
44 | Clc1ccc(CON=C2CC3CCC(C2)N3c2ncnc3sccc23)cc1 [Example 5.142] |  | ≥ 80 | ≥ 80 | pest or weed control at 2 ppm (Aedes aegypti): ≥ 80%; pest or weed control at 200 ppm (Pyricularia oryzae; [3]): ≥ 60%; pest or weed control at 200 ppm (Plutella xylostella): ≥ 80%; pest or weed control at 200 ppm (Plasmopara viticola): ≥ 80%
45 | Cc1ccccc1CON=C1CC2CCC(C1)N2c1ncnc2sccc12 [Example 5.155] |  | ≥ 80 | ≥ 80 | pest or weed control at 2 ppm (Aedes aegypti): ≥ 80%; pest or weed control at 200 ppm (Pyricularia oryzae; [3]): ≥ 60%; pest or weed control at 200 ppm (Plutella xylostella): ≥ 80%; pest or weed control at 200 ppm (Plasmopara viticola): ≥ 80%
46 | Cc1cccc(CON=C2CC3CCC(C2)N3c2ncnc3sccc23)c1 [Example 5.157] |  | ≥ 80 | ≥ 80 | pest or weed control at 200 ppm (Pyricularia oryzae; [3]): ≥ 60%; pest or weed control at 200 ppm (Phytophthora infestans): ≥ 80%; pest or weed control at 200 ppm (Plasmopara viticola): ≥ 80%
47 | Clc1ccc(CON=C2CC3CCC(C2)N3c2ncnc3sccc23)cc1Cl [Example 5.169] |  | ≥ 80 | ≥ 80 | pest or weed control at 200 ppm (Pyricularia oryzae; [3]): ≥ 60%; pest or weed control at 200 ppm (Pyricularia oryzae; [4]): ≥ 80%; pest or weed control at 200 ppm (Plutella xylostella): ≥ 80%; pest or weed control at 200 ppm (Plasmopara viticola): ≥ 80%
48 | Cc1cc(C(F)(F)F)cc(ON=C2CC3CCC(C2)N3c2ncnc3sccc23)n1 [Example 5.196] | 167 | ≥ 80 | ≥ 80 | 
49 | Fc1ccc(C(F)(F)F)cc1CON=C1CC2CCC(C1)N2c1ncnc2sccc12 [Example 5.238] |  | ≥ 80 | ≥ 80 | pest or weed control at 2 ppm (Aedes aegypti): ≥ 80%; pest or weed control at 200 ppm (Pyricularia oryzae; [3]): ≥ 60%; pest or weed control at 200 ppm (Plutella xylostella): ≥ 80%; pest or weed control at 200 ppm (Plasmopara viticola): ≥ 80%
50 | Clc1ccc(-c2nc(CON=C3CC4CCC(C3)N4c3ncnc4sccc34)cs2)cc1 [Example 5.255] |  | ≥ 80 | ≥ 80 | pest or weed control at 2 ppm (Aedes aegypti): ≥ 80%; pest or weed control at 200 ppm (Phytophthora infestans): ≥ 80%; pest or weed control at 200 ppm (Plasmopara viticola): ≥ 80%
51 | Cc1nn(C)c2nccc(N3C4CCC3CC(=NOc3ncc(C(F)(F)F)cc3Cl)C4)c12 [Example 5.261] | 153 | ≥ 80 |  | 
52 | CC1(C)COC2(CC3CCC(C2)N3c2ncnc3sccc23)O1 (stereo not drawn) [Example 6.2] |  | ≥ 80 | ≥ 80 | pest or weed control at 200 ppm (Phytophthora infestans): ≥ 80%; pest or weed control at 200 ppm (Plasmopara viticola): ≥ 80%
53 | c1ccc(C2COC3(CC4CCC(C3)N4c3ncnc4sccc34)O2)cc1 (stereo not drawn) [Example 6.7] |  | ≥ 80 | ≥ 80 | pest or weed control at 2 ppm (Aedes aegypti): ≥ 80%; pest or weed control at 200 ppm (Pyricularia oryzae; [3]): ≥ 60%; pest or weed control at 200 ppm (Pyricularia oryzae; [4]): ≥ 80%; pest or weed control at 200 ppm (Plasmopara viticola): ≥ 80%
54 | OC1(CC#Cc2ccccc2)CC2CCC(C1)N2c1ncnc2sccc12 (stereo not drawn) [Example 7.15] | 173 |  | ≥ 80 | 
55 | Clc1ccc(-c2csc(CC3CC4CCC(C3)N4c3ncnc4sccc34)n2)cc1 (stereo not drawn) [Example 7.19] |  |  |  | pest or weed control at 2 ppm (Aedes aegypti): ≥ 80%; pest or weed control at 200 ppm (Plutella xylostella): ≥ 80%; pest or weed control at 200 ppm (Plasmopara viticola): ≥ 80%
